Assay in all cases: NCI-60 cell line screen, 48 h
In test [1] the test system is NCI-H522.
Test [2] deals with U-251.
The subject of test [3] is RXF 393.
The subject of test [4] is CAKI-1.
The test system of test [5] is EKVX.
The subject of test [6] is UO-31.
Test [7] deals with SK-MEL-5.
The subject of test [8] is OVCAR-5.
For test [9], the system named is HCT-116.
The subject of test [10] is HOP-92.
Test [11] deals with MDA-MB-435.
Test [12] deals with DU-145.
Test [13] has as its system SK-MEL-2.
The subject of test [14] is ACHN.
Test [15] concerns NCI-H226.
For test [16], the system named is NCI-H460.
Test [17] deals with HCC 2998.
In test [18] the test system is NCI/ADR-RES.
For test [19], the system named is CCRF-CEM.

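The compound was tested at five concentrations on cells cultured in 96-well plates, with a 48-hour exposure period. GI50 is the concentration that inhibits growth by half.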 Calls of active or inactive are those of the source. Rule as the data show it: active = GI50 up to about 1.1 µM and inactive = higher.

Take `OCC(O)C(O)C(O)C(/C=N\Nc1ncnc2ccc(Br)cc12)=N/Nc1ncnc2ccc(Br)cc12` (centres undefined): the GI50 in [1] was 0.596 µM (active); in test [2], 3.34 µM (inactive); in [3], 24.9 µM (inactive); in [4], 4.55 µM (inactive); in [5], 4.42 µM (inactive); in [6], 37.5 µM (inactive). Further, the GI50 in test [7] is 3.37 µM (inactive); in test [8], 16.7 µM (inactive); in test [9], 3.09 µM (inactive); in test [10], 13.8 µM (inactive); in test [11] it was 12.9 µM (inactive); in test [12], 5.65 µM (inactive). Also, the GI50 in test [13] is 3.33 µM (inactive); in [14], 5.24 µM (inactive); in test [15] it was 5.58 µM (inactive).
`CC(C)(C)NC(=O)CCC1C(C(=O)NC(C)(C)C)C2(Cl)C(Cl)=C(Cl)C1(Cl)C2(Cl)Cl` (centres undefined): the GI50 in [1], in [2], in [3], in [5], in [16] and in [17] was > 100 µM (inactive) in each case. In addition, the GI50 in [18], in [6], in test [7], in [8], in test [9] and in [11] was > 100 µM (inactive) throughout. For the same compound, the GI50 in test [12], in [13], in test [19], in test [14] and in [15] was > 100 µM (inactive) each time.
On to `COCCNc1cncc(C(N)=O)c1`, for which the GI50 in test [1], in test [2], in test [4], in [5], in test [16] and in [17] was > 100 µM (inactive) in each case. Further, the GI50 in test [18], in test [6], in [7], in test [8], in test [9] and in [12] was > 100 µM (inactive) in each case. The GI50 in test [13], in [19], in [14] and in test [15] was > 100 µM (inactive) in each case.
Consider `Cc1ccc(S(=O)(=O)NC(=O)Nc2ccc(C(=O)O)cc2)cc1`, for which the GI50 in test [1], in [2], in test [3], in test [16], in test [18] and in test [6] was > 100 µM (inactive) in each case. In addition, the GI50 in [7], in test [8], in [9], in [10], in test [12] and in test [13] was > 100 µM (inactive) throughout. In addition, the GI50 in test [19] and in test [14] was > 100 µM (inactive) throughout.
Turning to `Cc1ccc(C(=O)/C(C#N)=C/Nc2c(C)n(C)n(-c3ccccc3)c2=O)cc1`, the GI50 in [1], in [2], in test [3], in test [4], in test [5] and in test [16] was > 100 µM (inactive) in each case. Further, the GI50 in test [17] is > 100 µM (inactive); in test [6], > 100 µM (inactive); in [7], > 100 µM (inactive); in test [8] it was > 100 µM (inactive); in test [9] it was > 100 µM (inactive); in test [10] it was 46.2 µM (inactive). For the same compound, the GI50 in test [11], in test [12], in test [13], in test [19], in [14] and in test [15] was > 100 µM (inactive) each time.
Take `COC(=O)c1c2c(cc3c1CCC3)CCC2`: the GI50 was 46.6 µM (inactive) in test [1]; 51.9 µM (inactive) in [2]; 72.4 µM (inactive) in test [4]; 39.6 µM (inactive) in test [5]; 94.6 µM (inactive) in test [16]; 59.4 µM (inactive) in test [17]. Moreover, the GI50 was > 100 µM (inactive) in [18]; 72.8 µM (inactive) in [6]; 15.9 µM (inactive) in [7]; > 100 µM (inactive) in test [8]; 39.6 µM (inactive) in test [9]; 70.8 µM (inactive) in test [11]. Also, the GI50 is 65.8 µM (inactive) in test [12]; 24.8 µM (inactive) in test [13]; 20.1 µM (inactive) in test [19]; > 100 µM (inactive) in test [14]; 54.7 µM (inactive) in test [15].
In the case of `CN(CC(=O)Nc1ccccc1C(=O)O)c1ccccc1`, the GI50 in test [1], in test [2], in test [3], in test [4], in [5] and in test [16] was > 100 µM (inactive) throughout. The GI50 in test [17] is > 100 µM (inactive); in test [6], > 100 µM (inactive); in test [7], > 100 µM (inactive); in test [8], > 100 µM (inactive); in test [9], 84.3 µM (inactive); in test [10], > 100 µM (inactive). The GI50 in [12], in test [19], in [14] and in test [15] was > 100 µM (inactive) each time.
Regarding `COc1ccccc1CNCCCCCNCCCCCCCCCCNCCCCCNCc1ccccc1OC`, the GI50 is 19.8 µM (inactive) in test [1]; 18.9 µM (inactive) in [2]; 31 µM (inactive) in test [3]; 13.8 µM (inactive) in test [16]; 22.4 µM (inactive) in test [17]; 42 µM (inactive) in test [6]. Also, the GI50 is 34.1 µM (inactive) in [7]; 11.8 µM (inactive) in test [9]; 34.5 µM (inactive) in test [10]; 57.4 µM (inactive) in test [11]; 18 µM (inactive) in [12]; 18.4 µM (inactive) in test [13]. The figures for the GI50 in test [19], in [14] and in test [15] were 13 µM (inactive), > 100 µM (inactive) and 18.1 µM (inactive), respectively.
Regarding `Clc1ccc(-c2nc(-c3ccc(Cl)cc3)[s+]s2)cc1`, the GI50 in [1] is 29.4 µM (inactive); in test [2] it was 30.4 µM (inactive); in test [3] it was 84.7 µM (inactive); in test [4] it was > 100 µM (inactive); in test [5] it was 56.2 µM (inactive); in [16] it was 37.6 µM (inactive). Further, the GI50 was > 100 µM (inactive) in test [17]; 39.6 µM (inactive) in test [18]; > 100 µM (inactive) in test [6]; 47.8 µM (inactive) in [7]; > 100 µM (inactive) in test [8]; 51.4 µM (inactive) in [9]. The GI50 is 74.1 µM (inactive) in [11]; > 100 µM (inactive) in [12]; > 100 µM (inactive) in test [13]; 37 µM (inactive) in [19]; 38.6 µM (inactive) in test [14].
Turning to `COC(=O)/C=C1/OC(c2ccccc2)=C(Br)C1=O`, the GI50 in test [1] was 25.1 µM (inactive); in test [2] it was 23.2 µM (inactive); in test [3] it was 48.2 µM (inactive); in test [4] it was 24.8 µM (inactive); in test [5], > 100 µM (inactive); in test [16], 35.9 µM (inactive). In addition, the GI50 in test [17] is 56.8 µM (inactive); in test [6] it was 40 µM (inactive); in test [7], 20.3 µM (inactive); in test [8] it was > 100 µM (inactive); in test [9], 17.9 µM (inactive); in test [10] it was 64.4 µM (inactive). Further, the GI50 is 38 µM (inactive) in test [11]; 87.1 µM (inactive) in test [12]; 25.8 µM (inactive) in test [19]; 46.8 µM (inactive) in test [14]; 68.9 µM (inactive) in test [15].
For `Cc1c(NC(=S)NN)c(=O)n(-c2ccccc2)n1C`, the GI50 is 0.637 µM (active) in [1]; > 100 µM (inactive) in [2]; > 100 µM (inactive) in test [3]; > 100 µM (inactive) in test [4]; > 100 µM (inactive) in test [5]; > 100 µM (inactive) in [16]. Further, the GI50 in test [18], in test [6], in test [7], in [8], in [9] and in test [11] was > 100 µM (inactive) in each case. The GI50 in test [12] is > 100 µM (inactive); in [13], > 100 µM (inactive); in [19], > 100 µM (inactive); in [15] it was 1.58 µM (inactive).
As to `C/C=C1\CC(C(=O)OCC)CCCCCCC1=O` (centres undefined), the GI50 is 99.8 µM (inactive) in [1]; > 100 µM (inactive) in [2]; > 100 µM (inactive) in [3]; > 100 µM (inactive) in [4]; > 100 µM (inactive) in test [5]; > 100 µM (inactive) in test [18]. In addition, the GI50 in test [6], in test [7], in [8], in [9], in [11] and in test [12] was > 100 µM (inactive) throughout. For the same compound, the GI50 in [13] was > 100 µM (inactive); in test [19], 19.1 µM (inactive); in [14], > 100 µM (inactive); in [15], > 100 µM (inactive).

Values taken from ChEMBL document CHEMBL1201862, “PubChem BioAssay data set” (2004).
